Patent publication US20180296630A1, “METHODS AND COMPOSITIONS FOR PREVENTING OR TREATING OPHTHALMIC CONDITIONS” (Stealth BioTherapeutics Corp, priority 2012, published 2018)

How the values were obtained:
[1] = system: primary human retinal pigment epithelial (RPE) cells; assay: Apoptosis of RPE cells induced by tBHP; assay type: cell-based; conditions: 1 μM for 4 h + 250 μM tBHP for 24 h
Method: FIG. 34A: control group; (Q2+Q4)%=1.27±0.3%; FIG. 34B: 250 μM tBHP for 24 h group; (Q2+Q4)%=15.7±0.6%; FIG. 34C: 1 μM D-Arg-2′,6′-Dmt-Lys-Phe-NH2 for 4 h+250 μM tBHP for 24 h group; (Q2+Q4)%=8.4±0.8%. FIG. 34D is a chart comparing the fluorescence ratio for the different groups. *P<0.05 C vs. B. FIG. 35 is a chart showing the MDA level induced by tBHP in 3 groups of RPE cells. (*P<0.05).

[2] = system: STZ diabetic rats with intraocular ischemia/reperfusion; assay: Efficacy Pharmacological Test 1: diabetic rats, intraocular ischemia/reperfusion, visual cell layer edema
[3] = system: mouse model of retina degeneration; assay: Mouse model of retina degeneration (ONL thickness, PNA cone staining); assay type: in vivo; conditions: compared to untreated mice
Description: CNV is induced in the eye with laser burns. (see Example 6). Mouse models of retinal degeneration have been investigated for many years in the hope of understanding the causes of photoreceptor cell death. Naturally occurring mouse mutants that manifest degeneration of photoreceptors in the retina with preservation of all other retinal cell types have been found: retinal degeneration (formerly rd, identical with rodless retina, r, now Pde6b rd1); Purkinje cell degeneration (pcd); nervous (nr); retinal degeneration slow (rds, now Prph Rd2); retinal degeneration 3 (rd3); motor neuron degeneration (mnd); retinal degeneration 4 (Rd4); retinal degeneration 5 (rd5); vitiligo (vir, now Mitf mi-vit); retinal degeneration 6 (rd6); retinal degeneration 7 (rd7); neuronal ceroid lipofuscinosis (nclf); retinal degeneration 8 (rd8); retinal degeneration 9 (Rd9); retinal degeneration 10 (rd10); and cone photoreceptor function loss (cpfl1).
FIG. 28 is a series of micrographs showing the thickness of the retinal outer nuclear layer (ONL) in a mouse model of retina degeneration in control and D-Arg-2′,6′-Dmt-Lys-Phe-NH2-treated mice.

GTM and HTM cells = assay: Cell apoptosis induced by H2O2 (percentage of cells in Q2+Q4); assay type: cell-based, human; conditions: FIG. 38
Description: FIG. 38A-38D are graphs showing cell apoptosis of control and D-Arg-2′,6′-Dmt-Lys-Phe-NH2(SS-31)-treated groups valued by percentage of cells in the Q2+Q4 quadrant.
The percentage of intracellular ROS production compared to GTM control in GTM H2O2, D-Arg-2′,6′-Dmt-Lys-Phe-NH2 10^−6M, D-Arg-2′,6′-Dmt-Lys-Phe-NH2 10^−7M, D-Arg-2′,6′-Dmt-Lys-Phe-NH2 10^−8M groups were 146.0±2.27%, 84.5±8.75%, 102.0±5.69%, 133.0±5.17% respectively (n=3); the HTM groups were 153.0±3.46%, 79±2.39%, 91.8±3.49%, 129.0±8.24% respectively (n=4). P<0.001 GTM and HTM H2O2 Group compared to control; *** means P<0.001 compared to GTM H2O2 group; ▴ ▴ ▴ Means P<0.001 compared to HTM H2O2 group; ▴ ▴ means P<0.01 compared to HTM H2O2 group.

661W cells = assay: Mitochondrial viability of 661W cells exposed to tBHP (JC-1 assay); assay type: cell-based, mouse; conditions: 100 nmol/L
Method: The potential of D-Arg-2′,6′-Dmt-Lys-Phe-NH2 (D-Arg-2′,6′-Dmt-Lys-Phe-NH2) to protect against loss of mitochondrial viability induced by tBHP, 100 nmol/L D-Arg-2′,6′-Dmt-Lys-Phe-NH2 was administered to the cultures of 661w cells.

GTM cells = assay: Morphology of GTM cells exposed to H2O2 (inverted phase contrast microscopy); assay type: cell-based, human; conditions: peptide prior to H2O2, concentration-dependent and time-dependent
Description: The morphology of GTM cells was investigated when those cells were exposed to D-Arg-2′,6′-Dmt-Lys-Phe-NH2 prior to administration of hydrogen peroxide. […] That is, hydrogen peroxide mediated cell loss and rounding was diminished in cells exposed to D-Arg-2′,6′-Dmt-Lys-Phe-NH2 peptide. The mitochondrial membrane potential (Δψm) of HTM and GTM cells was also investigated when those cells were exposed to D-Arg-2′,6′-Dmt-Lys-Phe-NH2 prior to administration of hydrogen peroxide. The mitochondrial membrane potential was measured using confocal microscopy of cells labeled with tetramethylrhodamine methyl ester (TMRM, 500 nM×30 min) (FIG. 19-21). […] As such, D-Arg-2′,6′-Dmt-Lys-Phe-NH2 provides a protective effect against oxidative stress in GTM cells.

[4] = system: primary human retinal pigment epithelial (RPE) cells; assay: MMP of RPE cells exposed to tBHP (JC-1, FACS); assay type: cell-based
Method: Next, the viability of primary RPE cells was tested in the presence of tBHP and various concentrations of D-Arg-2′,6′-Dmt-Lys-Phe-NH2. Cells were plated at 10,000 cells per well in a 96-well plate and cultured for 24 h, then starved for 24 h. After that, cells were exposed to increasing concentrations of tBHP (FIG. 23A), or preincubated for 4 h with different concentrations of D-Arg-2′,6′-Dmt-Lys-Phe-NH2, then stimulated with tBHP for 6 h (FIG. 23B). […] Intracellular ROS production in three groups of RPE cells was also examined using FACS analysis. […] Three different concentration of D-Arg-2′,6′-Dmt-Lys-Phe-NH2 groups were analyzed. The ratio of red to green in 500 μM tBHP for the 3 h group is 1.08, the ratio of red to green in 10 nM D-Arg-2′,6′-Dmt-Lys-Phe-NH2 for 4 h+500 tBHP for 3 h group is 1.25; the ratio of red to green in 100 nM D-Arg-2′,6′-Dmt-Lys-Phe-NH2 for 4 hr+500 μM tBHP for 3 h group is 1.4; and the ratio of red to green in 1 μM D-Arg-2′,6′-Dmt-Lys-Phe-NH2 for 4 h+500 μM tBHP for 3 h group is […]. […] FIG. 33A: Control group, R/G is 3.63±0.24; FIG. 33B: 500 μM tBHP for 3 h group, R/G is 1.08±0.11; FIG. 33C: 1 μM D-Arg-2′,6′-Dmt-Lys-Phe-NH2 for 4 h+500 μM tBHP for 3 h group, R/G is 2.38±0.18. FIG. 33D is a chart comparing the fluorescence ratio for the different groups. *P<0.01, C vs. B.

Substance: D-Arg-2′,6′-Dmt-Lys-Phe-NH2
- (Q2+Q4)% cell apoptosis [1]: 8.4±0.8%
- loss of nuclei in the inner retinal layer ([2]; compared to the diabetic control group): absent, or much diminished
- edema of the visual cell layer after ischemia/reperfusion ([2]; diabetic groups, oral, parenteral or eye drops twice per day): no edema or very low levels of edema
- cone cell density (PNA-stained retinal flat mounts) [3]: greater
- rows of cells in the retinal outer nuclear layer (ONL) [3]: retained a greater number of rows of cells
- amount of cell apoptosis induced by H2O2 (GTM and HTM cells): reduced
- mitochondrial viability (JC-1 assay) (661W cells): significantly enhanced
- hydrogen peroxide-mediated morphological changes (cell loss and rounding) (GTM cells): protects cells from hydrogen peroxide-mediated morphological changes
- ratio of red to green (JC-1) ([4]; 10 nM for 4 h + 500 tBHP for 3 h (FIG. 32)): 1.25
- ratio of red to green (JC-1) ([4]; 100 nM for 4 hr + 500 μM tBHP for 3 h (FIG. 32)): 1.4
- ratio of red to green (JC-1) ([4]; 1 μM for 4 h + 500 μM tBHP for 3 h (FIG. 32)): 2.28
- R/G (JC-1) ([4]; 1 μM for 4 h + 500 μM tBHP for 3 h (FIG. 33C)): 2.38±0.18
